This note sets out measurements from publication PMC9501377, “New Diarylamine KV10.1 Inhibitors and Their Anticancer Potential” (Pharmaceutics, 2022).

One data set addresses hERG (Homo sapiens, UniProt Q12809). The data set is described as follows: Two-electrode voltage-clamp on Xenopus laevis oocytes expressing hERG. On the set-up: expressed in transfected cells; host or cells: Xenopus laevis oocytes (cRNA injection). It counts as cell-based. Particulars: voltage-clamped; for inhibition at 10 µM: human, Xenopus laevis oocytes expressing hERG, pH 7.5, 10 μM. The source says:
(§1) Stage V–VI oocytes were isolated by partial ovariectomy from Xenopus laevis frogs (African clawed frog). Mature female frogs were purchased from CRB Xénopes (Rennes, France) and were housed in the Aquatic Facility (KU Leuven) in compliance with the regulations of the European Union (EU) concerning the welfare of laboratory animals as declared in Directive 2010/63/EU. The use of Xenopus laevis was approved by the Animal Ethics Committee of the KU Leuven (Project nr. P186/2019). After anesthetising the frogs by a 15 min submersion in 0.1% tricaine methanesulphonate (pH 7.0), the oocytes were collected. The isolated oocytes were then washed with a 1.5 mg/mL collagenase solution for 2 h to remove the follicle layer.
(§2) Ion channels (KV10.1 and hERG) were expressed in Xenopus laevis oocytes, by linearisation of the plasmids and subsequent in vitro transcription using a commercial T7 or SP6 mMESSAGE mMACHINE transcription kit (Ambion, Carlsbad, CA, USA). Defolliculated Xenopus oocytes were then injected with 20–50 nL of the cRNA at a concentration of 1 ng/nL using a micro-injector (Drummond Scientific1, Broomall, PA, USA). The oocytes were incubated in a solution containing (in mM): NaCl, 96; KCl, 2; CaCl2, 1.8; MgCl2, 2 and HEPES, 5 (pH 7.4), supplemented with 50 mg/L gentamycin sulphate and […]. After ex vivo translation, the ion channels are correctly inserted in the cell membrane of the oocytes.
(§3) Two-electrode voltage-clamp recordings were performed at room temperature (18–22 °C) using a Geneclamp 500 amplifier (Molecular Devices, San Jose, CA, USA) controlled by a pClamp data acquisition system (Axon Instruments1, Union City, CA, USA) and using an integrated digital TEVC amplifier controlled by HiClamp, an automated Voltage-Clamp Screening System (Multi Channel Systems MCS GmbH, Reutlingen, Germany). Whole-cell currents from oocytes were recorded 1–7 days after injection. The bath solution composition was ND96 (in mM): NaCl, 96; KCl, 2; CaCl2, 1.8; MgCl2, 2 and HEPES, 5 (pH 7.5). Voltage and current electrodes were filled with a 3 M solution of KCl in H2O. Resistances of both electrodes were kept between 0.5 and 1.5 MΩ. The elicited Kv10.1 and hERG currents were filtered at 0.5 kHz and sampled at 2 kHz using a four-pole low-pass Bessel filter. Leak subtraction was performed using a p/4 protocol. Starting from a holding potential of −90 mV, currents for Kv10.1 were evoked by 1 s depolarizing pulses to 0 mV and currents for hERG were evoked by 2.5 s depolarizing prepulses to +40 mV, followed by hyperpolarizing pulses to −120 mV for 2.5 s. The concentration dependency of all compounds was assessed by measuring the current inhibition in the presence of increasing compound concentrations. To this end, a stock solution of the compounds was prepared in 100% DMSO for the sake of solubility. From this stock solution, adequate dilutions with a maximum of 0.5% DMSO were made for testing. The data of the concentration–response curves were fitted with the Hill equation: y = 100/{1 + (IC50/[compound])^h}, where y is the amplitude of the compound- induced effect, IC50 is the compound concentration at half-maximal efficacy, (compound) is the compound concentration, and h is the Hill coefficient.
(§4) All electrophysiological data are presented as means ± SEM of n ≥ 3 independent experiments unless otherwise indicated. Oocyte data were analysed using pClamp Clampfit 10.4 (Molecular Devices, Downingtown, PA, USA) and OriginPro 9 (Originlab, Northampton, MA, USA) or GraphPad Prism 8 software (GraphPad Software, Inc., San Diego, CA, USA). Patch-clamp data analysis was performed using FitMaster (HEKA Electronics), IgorPro (Wavemetrics, Inc., Lake Oswego, OR, USA) and GraphPad Prism 9 (GraphPad Software, Inc., San Diego, CA, USA). The Dunnett test and one-way ANOVA were performed to calculate the significance of the induced inhibition compared to the control (p < 0.05).
For orientation: In two-electrode clamp one electrode senses voltage and the other passes current.

The target in a further data set is T1, KV10.1 (Homo sapiens, UniProt O95259).
T1 construct: expressed in transfected cells; host or cells: Xenopus laevis oocytes (cRNA injection)
T1 sequence (O95259 1-989): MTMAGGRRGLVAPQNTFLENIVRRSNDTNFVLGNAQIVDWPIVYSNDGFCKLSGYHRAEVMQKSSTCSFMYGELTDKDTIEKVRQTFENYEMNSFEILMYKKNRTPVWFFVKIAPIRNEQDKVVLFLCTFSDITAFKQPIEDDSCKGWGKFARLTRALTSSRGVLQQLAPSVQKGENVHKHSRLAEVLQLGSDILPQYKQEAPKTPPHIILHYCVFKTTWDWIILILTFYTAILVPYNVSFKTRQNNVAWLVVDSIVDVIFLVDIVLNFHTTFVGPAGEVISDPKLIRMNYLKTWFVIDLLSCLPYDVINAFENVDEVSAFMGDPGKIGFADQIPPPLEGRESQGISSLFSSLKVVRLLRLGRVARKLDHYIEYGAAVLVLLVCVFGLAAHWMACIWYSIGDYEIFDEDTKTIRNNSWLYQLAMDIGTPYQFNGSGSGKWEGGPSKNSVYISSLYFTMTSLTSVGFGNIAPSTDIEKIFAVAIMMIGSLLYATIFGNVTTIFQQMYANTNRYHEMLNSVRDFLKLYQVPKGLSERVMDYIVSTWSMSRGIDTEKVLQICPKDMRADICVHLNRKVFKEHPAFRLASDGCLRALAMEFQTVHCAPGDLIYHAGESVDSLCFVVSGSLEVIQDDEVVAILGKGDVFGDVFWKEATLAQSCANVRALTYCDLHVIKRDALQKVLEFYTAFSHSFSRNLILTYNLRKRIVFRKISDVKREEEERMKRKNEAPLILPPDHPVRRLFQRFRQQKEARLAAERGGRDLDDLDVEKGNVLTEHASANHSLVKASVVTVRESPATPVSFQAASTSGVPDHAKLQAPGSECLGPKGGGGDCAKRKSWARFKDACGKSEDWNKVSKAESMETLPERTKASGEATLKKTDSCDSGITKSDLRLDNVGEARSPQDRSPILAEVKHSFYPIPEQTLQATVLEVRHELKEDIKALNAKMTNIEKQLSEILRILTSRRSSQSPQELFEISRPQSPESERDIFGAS
The data set is described as follows: Two-electrode voltage-clamp on Xenopus laevis oocytes expressing KV10.1. It is filed as cell-based. Particulars: voltage-clamped.
Description: as §1, §2, §3, §4

hERG, sequence (Q12809 whole entry): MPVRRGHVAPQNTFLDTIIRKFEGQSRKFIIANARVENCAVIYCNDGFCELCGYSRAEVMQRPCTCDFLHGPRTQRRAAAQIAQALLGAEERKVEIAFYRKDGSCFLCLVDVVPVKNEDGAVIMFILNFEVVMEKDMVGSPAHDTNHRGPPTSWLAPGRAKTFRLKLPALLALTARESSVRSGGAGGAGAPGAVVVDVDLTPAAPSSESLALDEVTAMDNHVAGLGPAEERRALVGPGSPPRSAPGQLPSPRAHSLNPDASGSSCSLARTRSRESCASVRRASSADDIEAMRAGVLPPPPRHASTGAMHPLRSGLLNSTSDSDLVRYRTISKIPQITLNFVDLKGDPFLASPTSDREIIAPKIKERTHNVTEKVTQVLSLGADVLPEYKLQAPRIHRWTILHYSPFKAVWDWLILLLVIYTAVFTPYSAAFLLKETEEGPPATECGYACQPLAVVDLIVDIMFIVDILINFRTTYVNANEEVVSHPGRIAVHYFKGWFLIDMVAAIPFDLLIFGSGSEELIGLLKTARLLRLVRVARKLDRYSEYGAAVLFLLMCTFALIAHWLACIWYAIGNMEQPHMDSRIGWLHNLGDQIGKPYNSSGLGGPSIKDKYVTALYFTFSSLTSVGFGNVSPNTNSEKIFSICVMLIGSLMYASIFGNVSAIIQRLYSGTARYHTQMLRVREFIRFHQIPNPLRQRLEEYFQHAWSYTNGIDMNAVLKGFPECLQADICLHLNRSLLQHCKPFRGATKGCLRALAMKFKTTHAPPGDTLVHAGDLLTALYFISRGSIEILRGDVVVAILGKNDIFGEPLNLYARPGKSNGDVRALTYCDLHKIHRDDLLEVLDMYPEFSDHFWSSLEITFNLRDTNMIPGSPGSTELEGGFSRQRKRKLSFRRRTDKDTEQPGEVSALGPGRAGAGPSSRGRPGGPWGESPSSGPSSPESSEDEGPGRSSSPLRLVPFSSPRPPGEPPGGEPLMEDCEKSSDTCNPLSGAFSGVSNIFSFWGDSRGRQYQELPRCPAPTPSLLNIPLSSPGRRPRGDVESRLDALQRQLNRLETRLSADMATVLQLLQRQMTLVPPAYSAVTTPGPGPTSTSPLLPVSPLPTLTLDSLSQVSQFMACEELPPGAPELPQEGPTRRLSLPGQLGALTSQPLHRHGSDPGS

On to `CCN(CC)CCOc1c(Br)cc(Nc2ccc(C(F)(F)F)cc2[N+](=O)[O-])cc1Br` [Compound 17b, 3,5-Dibromo-4-(2-(diethylamino)ethoxy)-N-(2-nitro-4-(trifluoromethyl)phenyl)aniline], for which the inhibition at 10 µM at hERG is 60.1%; against KV10.1 it was 19.5%.

As to `COC(=O)c1ccccc1Nc1ccc(OCC(O)CN2CCOCC2)cc1` (stereo not drawn) [Compound 5d, Methyl 2-((4-(2-hydroxy-3-morpholinopropoxy)phenyl)amino)benzoate], the figures for the inhibition at 10 µM at hERG and against KV10.1 were 20.4% and -2.11%, respectively.

For `CNCC(O)COc1ccc(Nc2ccc(C(F)(F)F)cc2[N+](=O)[O-])cc1` (stereo not drawn) [Compound 15, 1-(Methylamino)-3-(4-((2-nitro-4-(trifluoromethyl)phenyl)amino)phenoxy)propan-2-ol], the results for the inhibition at 10 µM on hERG and on KV10.1 were 58.6% and 39.9%, respectively.

On to `CN(C)CC(O)COc1ccc(Nc2ccc(C(F)(F)F)cc2C(=O)O)cc1` (stereo not drawn) [Compound 10b, 2-((4-(3-(Dimethylamino)-2-hydroxypropoxy)phenyl)amino)-5-(trifluoromethyl)benzoic acid], for which the values for the inhibition at 10 µM on hERG and on KV10.1 were 14.7% and 15.7%, respectively.

As for `O=[N+]([O-])c1cc(C(F)(F)F)ccc1Nc1ccc(OCCN2CCOCC2)cc1` [Compound 13, N-(4-(2-Morpholinoethoxy)phenyl)-2-nitro-4-(trifluoromethyl)aniline], the inhibition at 10 µM on hERG came out at 34.7%; at KV10.1, 22.6%.

Regarding `CCN(CC)CCOc1c(Cl)cc(Nc2ccc(C(F)(F)F)cc2[N+](=O)[O-])cc1Cl` [Compound 17c, 3,5-Dichloro-4-(2-(diethylamino)ethoxy)-N-(2-nitro-4-(trifluoromethyl)phenyl)aniline], the inhibition at 10 µM came out at 54.7% against hERG and 9.21% against KV10.1.

As for `CN(C)CCOc1ccc(Nc2ccc(C(F)(F)F)cc2[N+](=O)[O-])cc1` [Compound 18a, N-(4-(2-(Dimethylamino)ethoxy)phenyl)-2-nitro-4-(trifluoromethyl)aniline], on hERG, the inhibition at 10 µM was found to be 65.2% and it took 7.56 ± 0.41 µM to reach half-maximal inhibition (IC50). Besides, on KV10.1, the inhibition at 10 µM was 41.7% and the 50% inhibitory concentration (IC50) came to 11.6 ± 0.35 µM.

For the compound `O=[N+]([O-])c1ccc(Nc2ccc(OCC(O)CN3CCOCC3)cc2)c([N+](=O)[O-])c1` (stereo not drawn) [Compound 5f, 1-(4-((2,4-Dinitrophenyl)amino)phenoxy)-3-morpholinopropan-2-ol], the inhibition at 10 µM came to 65.8% against hERG and 41.3% on KV10.1.

For orientation: inhibition means the drop in the measured response relative to a control, in per cent. The IC50 is the concentration that inhibits the measured activity by half. Read a high IC50 as weaker potency in that assay.
